In patent US20210246157A1, “CAMPTOTHECIN DERIVATIVES AND PREPARATION METHODS AND APPLICATIONS THEREOF” (priority 2018, published 2021):
Values after ≈ are worked out from the molar mass of the structure shown. Read-outs that look alike come from different tables or passages of the source.

Assays:
[1] = In vivo antitumor activity study, mouse weight (Example 19); set-up: species or system mice; details: 12.30 mg/kg i.v. once every three days
[2] = tested on: TPC-1; assay: Cytotoxicity test (MTT, 72 h); details: Homo sapiens, TPC1, 72 h, read-out: 50% Inhibiting Concentration value (IC50)
Protocol: (§1) Cells at logarithmic growth period are inoculated in a 96-well plate overnight, then drugs with a certain gradient concentrations are added, and incubation is carried out in a cell culture chamber (5% CO2, 37° C.) for 72 h.

[3] = tested on: ECA-109; assay: Cytotoxicity test (MTT, 72 h); details: Homo sapiens, ECa-109, 72 h, read-out: 50% Inhibiting Concentration value (IC50)
Protocol: (§2) In order to investigate the antitumor activities of the compounds, a variety of tumor cell lines for test are selected. Cells at logarithmic growth period are inoculated in a 96-well plate overnight, then drugs with a certain gradient concentrations are added, and incubation is carried out in a cell culture chamber (5% CO2, 37° C.) for 72 h.

[4] = tested on: PC3; assay: Cytotoxicity test (MTT, 72 h); details: Homo sapiens, PC-3, 72 h, read-out: 50% Inhibiting Concentration value (IC50)
Protocol: as §2

[5] = tested on: A549; assay: Cytotoxicity test (MTT, 72 h); details: Homo sapiens, A549, 72 h, read-out: 50% Inhibiting Concentration value (IC50)
Protocol: as §2

[6] = tested on: MDA-MB-231; assay: Cytotoxicity test (MTT, 72 h); details: Homo sapiens, MDA-MB-231, 72 h, read-out: 50% Inhibiting Concentration value (IC50)
Protocol: as §2

[7] = tested on: HepG2; assay: Cytotoxicity test (MTT, 72 h); details: Homo sapiens, HepG2, 72 h, read-out: 50% Inhibiting Concentration value (IC50)
Protocol: as §2

[8] = tested on: Hela; assay: Cytotoxicity test (MTT, 72 h); details: Homo sapiens, read-out: 50% Inhibiting Concentration value (IC50)
Protocol: as §2

[9] = tested on: colon cancer cells SW-480; assay: In vivo antitumor activity, tumor volume (Example 19); set-up: species or system mice; details: for Mouse Tumor Volume: 12.30 mg/kg i.v. once every three days, average, n = 6
[10] = Solubility test, equilibrium method, UV-visible spectrophotometry; type: physicochemical; details: thermodynamic from solid
Method in brief: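 Equilibrium solubility measured by UV-visible spectrophotometry. Reference solution of known concentration (C0) prepared in methanol; test concentration calculated as Cx=(Ax/A0)C0 from absorbance ratio of test to reference solution.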

[11] = tested on: HT-29; assay: Cytotoxicity test (MTT, 72 h); details: Homo sapiens, HT-29, 72 h, read-out: 50% Inhibiting Concentration value (IC50)
Protocol: as §1

[12] = Multi-dose in vivo antitumor activity study, mouse weight (Example 20); set-up: species or system mice; details: caudal vein once every 2 days
Protocol: The drugs are administered through the caudal veins of mice once every 2 days for a total of 7 times.
At the end of the treatment cycle, the orbital venous blood of the mice is collected for later blood routine test, the mice are killed by cervical dislocation method, and tumors are removed immediately and photographed. From day 0, the mice in each group are weighed every three days, and the weights are recorded. The weight average value of each group is calculated, and mouse weight variation curve is drawn according to statistical data. At the end of the treatment cycle, tumors are removed from anesthetized mice immediately and weighted, and the tumor weight of each group is recorded. The tumor inhibition rate (%) is calculated according to the following formula: […]

[13] = tested on: SW-480; assay: Cytotoxicity test (MTT, 72 h); details: Homo sapiens, SW480, 72 h, read-out: 50% Inhibiting Concentration value (IC50)
Protocol: as §1

[14] = tested on: PANC-1; assay: Cytotoxicity test (MTT, 72 h); details: Homo sapiens, PANC-1, 72 h, read-out: 50% Inhibiting Concentration value (IC50)
Protocol: as §1

[15] = tested on: BGC-823; assay: Cytotoxicity test (MTT, 72 h); details: Homo sapiens, BGC-823, 72 h, read-out: 50% Inhibiting Concentration value (IC50)
Protocol: as §2

For `CCc1c2c(nc3ccc(OC(=O)NCCOCc4cn(CCO[C@H]5O[C@@H](CO)[C@H](O)[C@@H](O)[C@@H]5O)nn4)cc13)-c1cc3c(c(=O)n1C2)COC(=O)[C@]3(O)CC` [Compound 67], the “Mouse Weight” value ([1]; day 0) was 23.97 g, the “Mouse Weight” value ([1]; day 3) was 23.97 g and the “Mouse Weight” value ([1]; day 6) was 23.57 g. For the same compound, the “Mouse Weight” value ([1]; day 9) was 23.94 g, the “Mouse Weight” value ([1]; day 12) was 23.58 g and the “Mouse Weight” value ([1]; day 15) was 24.45 g. The “Mouse Weight” value ([1]; day 18) was 24.86 g, the “Mouse Weight” value ([1]; day 21) was 25.33 g and the IC50 [2] was 8080 nM. The IC50 [3] was 4320 nM, the IC50 [4] was 2020 nM and the IC50 [5] was 2420 nM. It also gave an IC50 [6] of 876 nM, an IC50 [7] of 1050 nM and an IC50 [8] of 2910 nM. The “Mouse Tumor Volume” value ([9]; day 0) was 227.31 mm^3, the “Mouse Tumor Volume” value ([9]; day 3) was 126.54 mm^3 and the “Mouse Tumor Volume” value ([9]; day 6) was 142.84 mm^3. For the same compound, the “Mouse Tumor Volume” value ([9]; day 9) was 104.75 mm^3, the “Mouse Tumor Volume” value ([9]; day 12) was 73.72 mm^3 and the “Mouse Tumor Volume” value ([9]; day 15) was 43.74 mm^3. The “Mouse Tumor Volume” value ([9]; day 18) was 12.46 mm^3, the “Mouse Tumor Volume” value ([9]; day 21) was 11.38 mm^3 and the “inhibition rates on colon cancer cell SW-480 compared with CPT-11 (in words)” value ([9]; dosage two-thirds of the molar fraction of CPT-11) was “significantly higher inhibition rates”. The solubility ([10]; aqueous buffer, PBS pH 7.4, read-out: Solubility in PBS (pH = 7.4)) was 2110 µg/mL (≈ 2750 µM), the solubility ([10]; aqueous with cosolvent or surfactant or cyclodextrin, 0.1% aqueous solution of Tween-80, read-out: Solubility in 0.1% Tween-80) was 1480 µg/mL (≈ 1930 µM) and the solubility ([10]; saline or isotonic, normal saline, read-out: Solubility in Normal Saline (NS)) was 3350 µg/mL (≈ 4370 µM). For the same compound, the solubility ([10]; water, read-out: Solubility in Water) was 1260 µg/mL (≈ 1650 µM), the IC50 [11] was 5190 nM and the “Mouse Weight” value ([12]; day 0, high-dose group (H) 12.30 mg/kg) was 17.04 g. The “Mouse Weight” value ([12]; day 0, low-dose group (L) 3.075 mg/kg) was 16.18 g, the “Mouse Weight” value ([12]; day 0, medium-dose group (M) 6.15 mg/kg) was 18.28 g and the “Mouse Weight” value ([12]; day 3, high-dose group (H) 12.30 mg/kg) was 16.15 g. For the same compound, the “Mouse Weight” value ([12]; day 3, low-dose group (L) 3.075 mg/kg) was 16.28 g, the “Mouse Weight” value ([12]; day 3, medium-dose group (M) 6.15 mg/kg) was 17.29 g and the “Mouse Weight” value ([12]; day 6, high-dose group (H) 12.30 mg/kg) was 16.88 g. The “Mouse Weight” value ([12]; day 6, low-dose group (L) 3.075 mg/kg) was 15.76 g, the “Mouse Weight” value ([12]; day 6, medium-dose group (M) 6.15 mg/kg) was 16.82 g and the “Mouse Weight” value ([12]; day 9, high-dose group (H) 12.30 mg/kg) was 16.57 g. The “Mouse Weight” value ([12]; day 9, low-dose group (L) 3.075 mg/kg) was 16.28 g, the “Mouse Weight” value ([12]; day 9, medium-dose group (M) 6.15 mg/kg) was 17.18 g and the “Mouse Weight” value ([12]; day 12, high-dose group (H) 12.30 mg/kg) was 16.06 g. The “Mouse Weight” value ([12]; day 12, low-dose group (L) 3.075 mg/kg) was 16.03 g, the “Mouse Weight” value ([12]; day 12, medium-dose group (M) 6.15 mg/kg) was 16.74 g and the “Mouse Weight” value ([12]; day 15, high-dose group (H) 12.30 mg/kg) was 16.32 g. For the same compound, the “Mouse Weight” value ([12]; day 15, low-dose group (L) 3.075 mg/kg) was 16.04 g, the “Mouse Weight” value ([12]; day 15, medium-dose group (M) 6.15 mg/kg) was 15.82 g and the “Mouse Weight” value ([12]; day 18, high-dose group (H) 12.30 mg/kg) was 17.36 g. For the same compound, the “Mouse Weight” value ([12]; day 18, low-dose group (L) 3.075 mg/kg) was 16.17 g, the “Mouse Weight” value ([12]; day 18, medium-dose group (M) 6.15 mg/kg) was 16.27 g and the “Mouse Weight” value ([12]; day 21, high-dose group (H) 12.30 mg/kg) was 16.78 g. For the same compound, the “Mouse Weight” value ([12]; day 21, low-dose group (L) 3.075 mg/kg) was 16.48 g, the “Mouse Weight” value ([12]; day 21, medium-dose group (M) 6.15 mg/kg) was 16.84 g and the IC50 [13] was 251 nM. The IC50 [14] was 2910 nM and the IC50 [15] was 209 nM.
